In US20100056524A1, “Compound” (priority 2008, published 2010):
Structures can show the parent of a compound that is named as a salt. Where two headings read alike, the source gives them in different places.

Assays:
ERK1 = biological target: T1, ERK1 (Homo sapiens, UniProt P27361); assay: ERK1 protein kinase assay; assay type: biochemical; conditions: for remaining activity at 10 µM: 10 μM compound; for residual kinase activity ERK1: 1 μm compound; for remaining activity at 1 µM: 1 μM compound
T1 construct: All protein kinases were of human origin and encoded full length proteins, unless indicated otherwise; GST; made in house; host or cells: E. coli
Description: (§1) All protein kinases were of human origin and encoded full length proteins, unless indicated otherwise. They were either expressed as glutathione S-transferase (GST) fusion proteins in Escherichia Coli or as hexahistidine (His6)-tagged proteins in insect Sf21 cells. GST fusion proteins were purified by affinity chromatography on glutathione-Sepharose, and His6-tagged proteins on nickel/nitriloacetate-agarose. The procedures for expressing some of the protein kinases used herein have been detailed previously.^8,9 The following sections outline the DNA vectors synthesised and the procedures used to express and purifying protein kinases that have not been reported previously.
The following proteins were expressed in E. coli: —CHK2[5-543], cyclin-dependent protein kinase 2 (CDK2), MAP kinase-interacting kinase 2 (MNK2), extra-cellular signal-regulated kinase 1 (ERK1).
In order to produce activated forms of Aurora B and Aurora C, insect Sf21 cells were incubated for 1 h with the protein phosphatase inhibitor okadaic acid (50 nM). JNK isoforms were activated with MKK4 and MKK7, MNK2 with p38α MAPkinase; PKBα, PKBβ, with PDK1, and ERK1 with MKK1. To activate CDK2, bacterial pellets expressing cyclin A2 and CDK2 were mixed together, lyse and purified on glutathione Sepharose. The GST-tags were removed by cleavage with PreScission protease and the CDK2-cyclin A2 complex purified by chromatography on SP-Sepharose. It was then activated with CAK1/CDK7 followed by chromatography on nickel-nitrilotriacetate agarose to remove CAK1/CDK7, which binds to this column by virtue of its C-terminal His6 tag. All the other protein kinases were active as expressed.
(§2) All assays (25.5 μl) were carried out at room temperature (21° C.) and were linear with respect to time and enzyme concentration under the conditions used. Assays were performed for 30 min using Multidrop Micro reagent dispensers (Thermo Electron Corporation, Waltham, Mass. 02454, USA) in a 96-well format. The concentration of magnesium acetate in the assays was 10 mM and the [γ-33P] ATP (800 cpm/pmol) was used at 5, 20 or 50 μM as indicated, in order to be at or below the Km for ATP for each enzyme. Protein kinases assayed at 5 μM ATP were: —ERK1, ERK8, PKBα, MARK3, Aurora C. Protein kinases assayed at 20 μM ATP were: —JNK1, PDK1, CHK1, CHK2, CDK2 and Aurora B. Protein kinases assayed at 50 μM ATP were: —MNK2, IKKepsilon and TBK1.
(§3) The assays were initiated with MgATP, stopped by addition of 5 μl of 0.5 M orthophosphoric acid and spotted on to P81 filterplates using a unifilter harvester (PerkinElmer, Boston, Mass. 02118, USA). The IC50 values of inhibitors were determined after carrying out assays at 10 different concentrations of each compound.
ERK1 and ERK8 were both assayed against myelin basic protein (MBP, 0.33 mg/ml). MARK3 was assayed against the peptide […] (300 μM), MNK2 against the eIF4E protein (0.5 mg/ml). PKBβ was assayed against the peptide […] (30 μM). TBK1 were assayed against ([…]) (300 μM). The substrates used for other protein kinases were described previously.^8,9
(§4) Unless stated otherwise, enzymes were diluted in 50 mM Tris/HCl pH 7.5, 0.1 mM EGTA, 1 mg/ml BSA, 0.1% (v/v) 2-mercaptoethanol and assayed in 50 mM Tris/HCl pH 7.5, 0.1 mM EGTA, 0.1% (v/v) 2-mercaptoethanol.

CHK1 = biological target: T2, CHK1 (Homo sapiens, UniProt O14757); assay: CHK1 protein kinase assay; assay type: biochemical; conditions: for remaining activity at 10 µM: 10 μM compound; for residual kinase activity CHK1: 1 μm compound; for remaining activity at 1 µM: 1 μM compound
T2 construct: All protein kinases were of human origin and encoded full length proteins, unless indicated otherwise; made in house
T2 sequence (O14757 1-476): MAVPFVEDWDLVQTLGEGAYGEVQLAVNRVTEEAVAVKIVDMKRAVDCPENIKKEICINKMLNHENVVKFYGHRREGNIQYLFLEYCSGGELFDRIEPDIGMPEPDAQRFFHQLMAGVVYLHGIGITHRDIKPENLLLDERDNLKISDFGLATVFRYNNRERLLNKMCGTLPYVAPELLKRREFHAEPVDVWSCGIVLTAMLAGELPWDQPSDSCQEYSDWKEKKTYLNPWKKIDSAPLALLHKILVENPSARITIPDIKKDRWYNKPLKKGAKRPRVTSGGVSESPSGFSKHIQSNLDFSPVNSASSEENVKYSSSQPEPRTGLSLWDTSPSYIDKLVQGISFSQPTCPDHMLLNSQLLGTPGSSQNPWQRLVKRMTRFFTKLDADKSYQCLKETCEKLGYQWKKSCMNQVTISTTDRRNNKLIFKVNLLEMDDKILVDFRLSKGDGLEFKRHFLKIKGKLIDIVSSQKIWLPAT
Description: as §1, §2, §3, §4

[1] = read-out: residual kinase activity ERK1
[2] = read-out: residual kinase activity CHK1
[3] = ERK1, 5 μM ATP, read-out: residual kinase activity
[4] = CHK1, 20 μM ATP, read-out: residual kinase activity

T1 sequence (P27361 whole entry): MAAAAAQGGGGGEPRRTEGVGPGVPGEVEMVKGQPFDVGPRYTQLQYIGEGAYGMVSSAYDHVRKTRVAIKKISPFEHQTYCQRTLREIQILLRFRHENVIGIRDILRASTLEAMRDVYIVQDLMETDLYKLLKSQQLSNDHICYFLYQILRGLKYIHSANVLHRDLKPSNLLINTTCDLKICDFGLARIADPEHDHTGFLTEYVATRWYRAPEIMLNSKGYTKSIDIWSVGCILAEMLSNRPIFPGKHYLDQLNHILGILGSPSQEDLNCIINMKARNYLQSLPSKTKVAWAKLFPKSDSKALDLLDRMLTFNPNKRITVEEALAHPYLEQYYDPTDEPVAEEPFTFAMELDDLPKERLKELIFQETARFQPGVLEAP

In the case of O=C(NCCCNc1nc(Nc2cccc(F)c2)ncc1Br)C1CCC1 [Compound A, cyclobutanecarboxylic acid {3-[5-bromo-2-(3-fluoro-phenylamino)-pyrimidin-4-ylamino]-propyl}-amide, reference compound], the remaining activity at 10 µM (ERK1; [1]) is reported as 7%, the “residual kinase activity ERK1” value (ERK1) is reported as 28% and the remaining activity at 10 µM (CHK1; [2]) is reported as 0%. The “residual kinase activity CHK1” value (CHK1) was 9%.
In the case of O=C(NCCCNc1nc(Nc2cccc(F)c2)ncc1C1CC1)C1CCC1 [Example 23, Cyclobutanecarboxylic acid {3-[5-cyclopropyl-2-(3-fluoro-phenylamino)-pyrimidin-4-ylamino]-propyl}-amide], the remaining activity at 10 µM (ERK1; [1]) is reported as 75%, the “residual kinase activity ERK1” value (ERK1) is reported as 88% and the remaining activity at 1 µM (ERK1; [3]) is reported as 88%. For the same compound, the remaining activity at 10 µM (ERK1; [3]) was 75%, the remaining activity at 10 µM (CHK1; [2]) was 14% and the “residual kinase activity CHK1” value (CHK1) was 51%. For the same compound, the remaining activity at 1 µM (CHK1; [4]) was 51% and the remaining activity at 10 µM (CHK1; [4]) was 14%.
With O=C(NCCCNc1nc(Nc2cccc(N3CCCC3=O)c2)ncc1C1CC1)c1cccs1 [Example 47, Thiophene-2-carboxylic acid (3-{5-cyclopropyl-2-[3-(2-oxo-pyrrolidin-1-yl)-phenylamino]-pyrimidin-4-ylamino}-propyl)-amide. Hydrochloride salt] the remaining activity at 1 µM (ERK1; [3]) was 89%, the remaining activity at 10 µM (ERK1; [3]) was 81% and the remaining activity at 1 µM (CHK1; [4]) was 70%. It also gave a remaining activity at 10 µM (CHK1; [4]) of 30%.
With O=C(NCCCNc1nc(Nc2cccnc2)ncc1C1CC1)c1cccs1 [Example 50, Thiophene-2-carboxylic acid {3-[5-cyclopropyl-2-(pyridin-3-ylamino)-pyrimidin-4-ylamino]-propyl}-amide] the remaining activity at 1 µM (ERK1; [3]) was 99%, the remaining activity at 10 µM (ERK1; [3]) was 65% and the remaining activity at 1 µM (CHK1; [4]) was 65%. The remaining activity at 10 µM (CHK1; [4]) was 21%.
